Measured values from patent US7259004B1, “Endophytic streptomycetes from higher plants with biological activity” (Montana State University, priority 2002, dated 2007).
≈ marks a conversion by molar mass, not a printed value. Read-outs that look alike come from different tables or passages of the source.

Tests used:
[1] = test system: Staphylococcus aureus ATCC 33591 (MRSA); experiment: microbroth dilution MIC; assay type: cell-based; conditions: Staphylococcus aureus; Table 15
[2] = test system: Enterococcus faecalis ATCC 51299 (VRE); experiment: microbroth dilution MIC; assay type: cell-based; conditions: Enterococcus faecalis; Table 15
S. epidermis 12228 = experiment: microbroth dilution MIC; assay type: cell-based, Staphylococcus epidermidis; conditions: Staphylococcus epidermidis, ATCC12228; Table 15; read-out: MIC Staphylococcus epidermidis ATCC 12228
E. faecium 49624 = experiment: microbroth dilution MIC; assay type: cell-based, Enterococcus faecium; conditions: Enterococcus faecium, ATCC49624; Table 15; read-out: MIC Enterococcus faecium ATCC 49624
E. faecalis 29212 = experiment: microbroth dilution MIC; assay type: cell-based, Enterococcus faecalis; conditions: Enterococcus faecalis, ATCC29212; Table 15; read-out: MIC Enterococcus faecalis ATCC 29212
S. aureus 29213 = experiment: microbroth dilution MIC; assay type: cell-based, Staphylococcus aureus; conditions: Staphylococcus aureus, ATCC29213; Table 15; read-out: MIC Staphylococcus aureus ATCC 29213
[3] = test system: Listeria monocytogenes 19114; experiment: microbroth dilution MIC; assay type: cell-based; conditions: Listeria monocytogenes, ATCC19114; Table 15; read-out: MIC Listeria monocytogenes ATCC 19114
[4] = test system: Listeria monocytogenes 19115; experiment: microbroth dilution MIC; assay type: cell-based; conditions: Listeria monocytogenes, ATCC19115; Table 15; read-out: MIC Listeria monocytogenes ATCC 19115
[5] = test system: Staphylococccus simulans 11631; experiment: microbroth dilution MIC; assay type: cell-based, Staphylococcus simulans; conditions: Staphylococcus simulans, ATCC11631; Table 15; read-out: MIC Staphylococcus simulans ATCC 11631
[6] = test system: Staphylococccus aureus 27734; experiment: microbroth dilution MIC; assay type: cell-based, Staphylococcus aureus; conditions: Staphylococcus aureus, ATCC27734; Table 15; read-out: MIC Staphylococcus aureus ATCC 27734
[7] = test system: Streptococcus pneumoniae 49619; experiment: microbroth dilution MIC; assay type: cell-based; conditions: Streptococcus pneumoniae, ATCC49619; Table 15; read-out: MIC Streptococcus pneumoniae ATCC 49619
[8] = test system: Bacillus anthracis 40/BA 100; experiment: microbe, parasite or virus in culture; assay type: cell-based; conditions: 40/BA100, read-out: MIC Bacillus anthracis 40/BA 100
Bacillus anthracis 14578 = experiment: microbe, parasite or virus in culture; assay type: cell-based; conditions: Bacillus anthracis, 14578, read-out: MIC Bacillus anthracis 14578
Bacillus anthracis 28 = experiment: microbe, parasite or virus in culture; assay type: cell-based; conditions: Bacillus anthracis, 28, read-out: MIC Bacillus anthracis 28
Bacillus anthracis 62-8 = experiment: microbe, parasite or virus in culture; assay type: cell-based; conditions: Bacillus anthracis, 628, read-out: MIC Bacillus anthracis 62-8
[9] = test system: Shigella dysenteriae ATCC 11835; experiment: microbroth dilution MIC; assay type: cell-based; conditions: ATCC11835, Table 15, read-out: MIC Shigella dysenteriae ATCC 11835
[10] = test system: Staphylococcus aureus GISA, ATCC 700787; experiment: microbroth dilution MIC; assay type: cell-based; conditions: ATCC700787, Table 15, read-out: MIC Staphylococcus aureus GISA, ATCC 700787
[11] = test system: Streptococcus pneumoniae ATCC 70674; experiment: microbroth dilution MIC; assay type: cell-based; conditions: ATCC70674, Table 15, read-out: MIC Streptococcus pneumoniae ATCC 70674
[12] = test system: Streptococcus pneumoniae ATCC 70676; experiment: microbroth dilution MIC; assay type: cell-based; conditions: ATCC70676, Table 15, read-out: MIC Streptococcus pneumoniae ATCC 70676
B. subtilis 1A757 = experiment: microbe, parasite or virus in culture; assay type: cell-based, Bacillus subtilis; conditions: for MIC: Bacillus subtilis, read-out: MIC B. subtilis 1A757
S. aureus ATCC 6583P = experiment: MIC with and without double stranded DNA; assay type: cell-based, Staphylococcus aureus; conditions: Staphylococcus aureus, ATCC6583P, read-out: MIC S. aureus ATCC 6583P
[13] = CellTiter 96 Aqueous Non-Radioactive Cell Proliferation Assay; assay type: cell-based, human; conditions: human, read-out: IC50 cytotoxicity, human mammary epithelial cells
[14] = test system: Human Breast Cancer Epithelial BT-20; experiment: as above; assay type: cell-based; conditions: for IC50: Homo sapiens
[15] = test system: Human Cervical Cancer Epithelial ME180; experiment: as above; assay type: cell-based; conditions: Homo sapiens, ME-180, read-out: IC50 Human Cervical Cancer Epthelial ME180
Method in brief: (§1)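 Cells rested 5 h at 37° C after seeding, then treated in triplicate with two-fold serial dilutions of compound. A-549 and ME-180 were exposed for 48 h. After 1–4 h MTS reagent at 37° C, OD490 was read and corrected by subtracting medium-only blanks.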

[16] = test system: Human Lung Cancer Epithelial A549; experiment: as above; assay type: cell-based; conditions: Homo sapiens, A549, read-out: IC50 Human Lung Cancer Epithelial A549
Method in brief: as §1

[17] = test system: Human Primary Mammary Epithelial HMEC; experiment: as above; assay type: cell-based; conditions: Homo sapiens, HMEC, read-out: IC50 Human Primary Mammary Epithelial HMEC, Table 12
[18] = test system: DNA synthesis in Bacillus subtilis; experiment: macromolecular synthesis whole cell assay, [3H]thymidine incorporation; assay type: cell-based; conditions: 5 min; 1×MIC
[19] = test system: RNA synthesis in Bacillus subtilis; experiment: macromolecular synthesis whole cell assay, [3H]uridine incorporation; assay type: cell-based; conditions: 1×MIC
[20] = test system: Protein synthesis in Bacillus subtilis; experiment: macromolecular synthesis whole cell assay, [3H]amino acid mixture incorporation; assay type: cell-based; conditions: 1×MIC
[21] = solubility in acetonitrile
[22] = test system: Plasmodium falciparum strain CSC-1 (Honduras); experiment: antimalarial assay, 3H-phenylalanine radiobioassay in human red blood cells; conditions: Plasmodium falciparum, Erythrocyte, read-out: IC50 Plasmodium falciparum

CS[C@H]1SC[C@H]2C(=O)N(C)[C@@H](C(C)C)C(=O)OC[C@@H](NC(=O)c3cnc4ccccc4n3)C(=O)N[C@@H](C)C(=O)N(C)[C@@H]1C(=O)N(C)[C@@H](C(C)C)C(=O)OC[C@@H](NC(=O)c1cnc3ccccc3n1)C(=O)N[C@@H](C)C(=O)N2C [Echinomycin, reference compound]
MIC [1]: 0.5 mg/L (≈ 0.454 µM) | MIC [2]: 0.125 mg/L (≈ 0.114 µM) | MIC (S. epidermis 12228): 0.25 mg/L (≈ 0.227 µM) | MIC (E. faecium 49624): ≤ 0.062 mg/L | MIC (E. faecalis 29212): 0.125 mg/L (≈ 0.114 µM) | MIC (S. aureus 29213): 0.5 mg/L (≈ 0.454 µM) | MIC [3]: 0.5 mg/L (≈ 0.454 µM) | MIC [4]: 0.25 mg/L (≈ 0.227 µM) | MIC [5]: 0.25 mg/L (≈ 0.227 µM) | MIC [6]: 0.25 mg/L (≈ 0.227 µM) | MIC [7]: < 0.0325 mg/L | MIC [8]: 1.4 mg/L (≈ 1.27 µM) | MIC (Bacillus anthracis 14578): 1.99 mg/L (≈ 1.81 µM) | MIC (Bacillus anthracis 28): 2.4 mg/L (≈ 2.18 µM) | MIC (Bacillus anthracis 62-8): 1.4 mg/L (≈ 1.27 µM) | MIC [9]: 8 mg/L (≈ 7.26 µM) | MIC [10]: 1 mg/L (≈ 0.908 µM) | MIC [11]: < 0.0325 mg/L | MIC [12]: < 0.0325 mg/L | 1×MIC against Bacillus subtilis (B. subtilis 1A757): 0.25 micrograms/ml | MIC (B. subtilis 1A757; 1A757, DNA +, 20 micrograms per well of sheared salmon sperm DNA): 8 mg/L (≈ 7.26 µM) | MIC (B. subtilis 1A757; 1A757, DNA −): 0.125 mg/L (≈ 0.114 µM) | MIC (S. aureus ATCC 6583P; DNA +, 20 micrograms per well of sheared salmon sperm DNA): 16 mg/L (≈ 14.5 µM) | MIC (S. aureus ATCC 6583P; DNA −): 0.5 mg/L (≈ 0.454 µM) | IC50 at 48 h ([13]; Example 15): 0.0108 ± 0.0011 mg/L (≈ 0.00981 µM) | IC50 at 48 h ([13]; text of Examples 18, 19): 4.8 mg/L (≈ 4.36 µM) | IC50 ([14]; BT-20, read-out: IC50 Human Breast Cancer Eipthelial BT-20, Table 12): 0.0048 mg/L (≈ 0.00436 µM) | IC50 ([14]; BT-20, read-out: IC50 human breast cancer cell line BT 20, text of Examples 15, 18, 19): 0.0048 mg/L (≈ 0.00436 µM) | IC50 human breast cancer cell line BT 20 ([14]; text of Examples 15, 18, 19, listed as echnimonycin): 0.0065 mg/L (≈ 0.0059 µM) | IC50 [15]: 0.023 mg/L (≈ 0.0209 µM) | IC50 [16]: 0.145 mg/L (≈ 0.132 µM) | IC50 [17]: 0.0108 mg/L (≈ 0.00981 µM) | % [3H]thymidine (DNA synthesis) incorporation of that of the untreated culture [18]: 1% | % [3H]uridine (RNA synthesis) incorporation of that of the untreated culture ([19]; 5 min): 41% | % [3H]uridine (RNA synthesis) incorporation of that of the untreated culture ([19]; 10 min): 37% | % [3H]amino acid mixture (Protein synthesis) incorporation of that of the untreated culture ([20]; 5 min): 73% | % [3H]amino acid mixture (Protein synthesis) incorporation of that of the untreated culture ([20]; 10 min): 62% | Solubility in acetonitrile [21]: sparingly soluble | IC50 [22]: 0.00408 ± 0.0001 mg/L (≈ 0.0037 µM)
